# Results reported in ChEMBL document CHEMBL3991601, “The target landscape of clinical kinase drugs” (Science, 2017).
# Calls of active or inactive are those of the source. For most assays here, no stated cut-off is given here; in the data, actives have a measured Kd and inactives only a lower limit.
# Biological target: Mitogen-activated protein kinase kinase kinase kinase 1 (Homo sapiens, UniProt Q92918)
# Sequence (Q92918 whole entry): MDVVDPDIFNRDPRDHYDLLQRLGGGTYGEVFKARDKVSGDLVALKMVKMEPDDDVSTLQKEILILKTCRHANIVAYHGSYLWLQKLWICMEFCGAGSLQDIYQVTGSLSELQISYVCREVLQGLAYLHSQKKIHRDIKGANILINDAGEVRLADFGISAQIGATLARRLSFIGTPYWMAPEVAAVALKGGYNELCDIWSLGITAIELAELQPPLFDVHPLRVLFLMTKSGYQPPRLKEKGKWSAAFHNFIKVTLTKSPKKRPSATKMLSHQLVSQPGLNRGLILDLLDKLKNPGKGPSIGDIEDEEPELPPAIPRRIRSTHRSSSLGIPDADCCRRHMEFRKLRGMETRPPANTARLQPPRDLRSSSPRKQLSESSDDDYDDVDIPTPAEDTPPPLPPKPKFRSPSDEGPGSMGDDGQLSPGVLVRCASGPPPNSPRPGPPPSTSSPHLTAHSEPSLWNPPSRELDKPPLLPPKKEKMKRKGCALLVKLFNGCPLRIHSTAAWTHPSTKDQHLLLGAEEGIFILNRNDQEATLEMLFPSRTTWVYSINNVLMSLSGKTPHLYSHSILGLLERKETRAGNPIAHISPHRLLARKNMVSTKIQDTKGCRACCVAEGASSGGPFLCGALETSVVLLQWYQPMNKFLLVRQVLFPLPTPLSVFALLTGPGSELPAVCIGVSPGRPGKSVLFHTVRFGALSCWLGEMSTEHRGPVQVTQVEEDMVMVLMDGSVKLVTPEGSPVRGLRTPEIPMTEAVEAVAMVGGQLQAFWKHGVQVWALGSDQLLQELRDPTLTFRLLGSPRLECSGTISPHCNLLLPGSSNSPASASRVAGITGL
row,Compound,Kd
1,C1=C/COCc2cc(ccc2OCCN2CCCC2)Nc2nccc(n2)-c2cccc(c2)COC/1 [PACRITINIB],0.16 µM
2,OCCn1cc(-c2cnc3nnn(Cc4ccc5ncccc5c4)c3n2)cn1 [PF-04217903],> 30 µM (inactive)
3,CNC(=O)c1cc(Oc2ccc(NC(=O)Nc3ccc(Cl)c(C(F)(F)F)c3)c(F)c2)ccn1 [REGORAFENIB],> 30 µM (inactive)
4,O=C(Nc1cccc(Cl)c1)Nc1ncc(CCNc2ncnc3ccsc23)s1 [SNS-314],> 30 µM (inactive)
5,COc1cc2nccc(Oc3ccc(NC(=O)Nc4cc(C)on4)c(Cl)c3)c2cc1OC [TIVOZANIB],> 30 µM (inactive)

# Biological target: T1, Mitogen-activated protein kinase kinase kinase kinase 3 (Homo sapiens, UniProt Q8IVH8)
# T1 sequence (Q8IVH8 whole entry): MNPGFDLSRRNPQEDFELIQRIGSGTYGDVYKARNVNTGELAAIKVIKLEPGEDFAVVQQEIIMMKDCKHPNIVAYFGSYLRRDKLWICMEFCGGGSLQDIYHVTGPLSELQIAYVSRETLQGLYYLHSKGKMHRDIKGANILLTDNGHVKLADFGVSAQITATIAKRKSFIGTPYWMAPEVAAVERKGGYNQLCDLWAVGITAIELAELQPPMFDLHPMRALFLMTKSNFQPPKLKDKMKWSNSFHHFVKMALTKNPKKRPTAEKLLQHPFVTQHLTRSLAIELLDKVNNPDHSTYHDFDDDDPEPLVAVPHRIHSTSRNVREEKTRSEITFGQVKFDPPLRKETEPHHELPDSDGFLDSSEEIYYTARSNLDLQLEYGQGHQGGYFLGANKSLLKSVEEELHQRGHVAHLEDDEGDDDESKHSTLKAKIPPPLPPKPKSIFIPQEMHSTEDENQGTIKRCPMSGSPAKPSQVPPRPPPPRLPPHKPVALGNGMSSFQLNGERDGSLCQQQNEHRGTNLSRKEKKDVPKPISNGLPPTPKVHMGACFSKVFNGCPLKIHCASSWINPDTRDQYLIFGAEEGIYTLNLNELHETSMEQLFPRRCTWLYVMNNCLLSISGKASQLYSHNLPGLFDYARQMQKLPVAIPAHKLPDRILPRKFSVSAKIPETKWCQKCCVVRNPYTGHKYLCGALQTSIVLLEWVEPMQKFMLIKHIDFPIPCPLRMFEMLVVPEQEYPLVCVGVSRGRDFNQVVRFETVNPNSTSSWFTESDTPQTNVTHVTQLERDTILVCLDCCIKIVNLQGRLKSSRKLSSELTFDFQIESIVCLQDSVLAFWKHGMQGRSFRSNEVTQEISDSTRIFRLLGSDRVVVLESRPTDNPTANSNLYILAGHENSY
row,Compound,Kd
1,C1=C/COCc2cc(ccc2OCCN2CCCC2)Nc2nccc(n2)-c2cccc(c2)COC/1 [PACRITINIB],> 30 µM (inactive)
2,OCCn1cc(-c2cnc3nnn(Cc4ccc5ncccc5c4)c3n2)cn1 [PF-04217903],> 30 µM (inactive)
3,CNC(=O)c1cc(Oc2ccc(NC(=O)Nc3ccc(Cl)c(C(F)(F)F)c3)c(F)c2)ccn1 [REGORAFENIB],> 30 µM (inactive)
4,O=C(Nc1cccc(Cl)c1)Nc1ncc(CCNc2ncnc3ccsc23)s1 [SNS-314],> 30 µM (inactive)
5,COc1cc2nccc(Oc3ccc(NC(=O)Nc4cc(C)on4)c(Cl)c3)c2cc1OC [TIVOZANIB],> 30 µM (inactive)

# Biological target: Maternal embryonic leucine zipper kinase (Homo sapiens, UniProt Q14680)
# Sequence (Q14680 whole entry): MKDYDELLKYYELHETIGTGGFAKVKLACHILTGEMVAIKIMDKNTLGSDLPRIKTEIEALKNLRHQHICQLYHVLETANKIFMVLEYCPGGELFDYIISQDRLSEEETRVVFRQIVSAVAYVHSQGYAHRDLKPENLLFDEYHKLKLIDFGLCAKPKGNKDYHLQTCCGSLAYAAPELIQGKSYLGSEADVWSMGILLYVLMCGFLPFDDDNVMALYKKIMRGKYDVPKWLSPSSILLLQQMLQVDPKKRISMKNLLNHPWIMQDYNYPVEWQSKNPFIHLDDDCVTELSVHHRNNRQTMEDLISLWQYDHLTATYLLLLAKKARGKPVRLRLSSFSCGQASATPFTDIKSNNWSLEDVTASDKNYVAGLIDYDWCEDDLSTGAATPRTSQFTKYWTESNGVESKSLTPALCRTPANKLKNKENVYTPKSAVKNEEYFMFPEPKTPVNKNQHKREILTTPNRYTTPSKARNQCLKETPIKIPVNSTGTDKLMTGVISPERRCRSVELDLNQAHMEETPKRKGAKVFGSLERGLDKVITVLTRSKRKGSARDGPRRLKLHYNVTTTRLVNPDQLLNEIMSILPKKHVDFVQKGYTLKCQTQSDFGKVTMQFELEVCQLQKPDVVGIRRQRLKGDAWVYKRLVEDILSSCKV
row,Compound,Kd
1,C1=C/COCc2cc(ccc2OCCN2CCCC2)Nc2nccc(n2)-c2cccc(c2)COC/1 [PACRITINIB],> 30 µM (inactive)
2,OCCn1cc(-c2cnc3nnn(Cc4ccc5ncccc5c4)c3n2)cn1 [PF-04217903],> 30 µM (inactive)
3,CNC(=O)c1cc(Oc2ccc(NC(=O)Nc3ccc(Cl)c(C(F)(F)F)c3)c(F)c2)ccn1 [REGORAFENIB],> 30 µM (inactive)
4,COc1cc2nccc(Oc3ccc(NC(=O)Nc4cc(C)on4)c(Cl)c3)c2cc1OC [TIVOZANIB],> 30 µM (inactive)

# Biological target: T2, Serine/threonine-protein kinase Nek9 (Homo sapiens, UniProt Q8TD19)
# T2 sequence (Q8TD19 whole entry): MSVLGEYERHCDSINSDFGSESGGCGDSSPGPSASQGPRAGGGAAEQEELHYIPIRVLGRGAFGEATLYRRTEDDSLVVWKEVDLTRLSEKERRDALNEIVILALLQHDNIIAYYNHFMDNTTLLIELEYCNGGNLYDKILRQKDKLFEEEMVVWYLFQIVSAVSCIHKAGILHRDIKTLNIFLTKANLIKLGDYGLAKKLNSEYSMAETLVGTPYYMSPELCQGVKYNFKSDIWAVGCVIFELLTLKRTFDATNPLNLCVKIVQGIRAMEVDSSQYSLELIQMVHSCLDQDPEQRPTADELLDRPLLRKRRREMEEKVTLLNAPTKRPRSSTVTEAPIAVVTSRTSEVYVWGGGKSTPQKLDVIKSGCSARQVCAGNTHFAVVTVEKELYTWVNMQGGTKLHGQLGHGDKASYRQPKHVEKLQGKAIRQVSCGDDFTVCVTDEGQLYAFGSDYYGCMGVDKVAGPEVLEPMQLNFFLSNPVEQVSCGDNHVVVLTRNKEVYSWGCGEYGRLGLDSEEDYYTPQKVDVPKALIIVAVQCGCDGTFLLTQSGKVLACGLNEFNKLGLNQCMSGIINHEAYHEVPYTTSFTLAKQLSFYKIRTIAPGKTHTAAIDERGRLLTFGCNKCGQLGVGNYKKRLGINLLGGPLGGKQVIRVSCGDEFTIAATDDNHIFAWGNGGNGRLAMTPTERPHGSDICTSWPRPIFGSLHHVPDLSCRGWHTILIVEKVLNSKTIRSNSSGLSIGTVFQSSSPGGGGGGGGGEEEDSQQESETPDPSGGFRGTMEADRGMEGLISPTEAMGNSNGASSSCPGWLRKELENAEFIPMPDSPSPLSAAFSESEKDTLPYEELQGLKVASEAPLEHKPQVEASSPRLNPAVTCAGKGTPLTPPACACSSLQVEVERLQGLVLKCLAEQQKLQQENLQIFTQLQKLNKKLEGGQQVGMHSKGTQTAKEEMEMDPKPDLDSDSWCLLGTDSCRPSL
row,Compound,Kd
1,C1=C/COCc2cc(ccc2OCCN2CCCC2)Nc2nccc(n2)-c2cccc(c2)COC/1 [PACRITINIB],1.78 µM (active)
2,OCCn1cc(-c2cnc3nnn(Cc4ccc5ncccc5c4)c3n2)cn1 [PF-04217903],> 30 µM (inactive)
3,CNC(=O)c1cc(Oc2ccc(NC(=O)Nc3ccc(Cl)c(C(F)(F)F)c3)c(F)c2)ccn1 [REGORAFENIB],> 30 µM (inactive)
4,O=C(Nc1cccc(Cl)c1)Nc1ncc(CCNc2ncnc3ccsc23)s1 [SNS-314],> 30 µM (inactive)
5,COc1cc2nccc(Oc3ccc(NC(=O)Nc4cc(C)on4)c(Cl)c3)c2cc1OC [TIVOZANIB],> 30 µM (inactive)

# Biological target: Structural maintenance of chromosomes protein 2 (Homo sapiens, UniProt O95347)
# Sequence (O95347 whole entry): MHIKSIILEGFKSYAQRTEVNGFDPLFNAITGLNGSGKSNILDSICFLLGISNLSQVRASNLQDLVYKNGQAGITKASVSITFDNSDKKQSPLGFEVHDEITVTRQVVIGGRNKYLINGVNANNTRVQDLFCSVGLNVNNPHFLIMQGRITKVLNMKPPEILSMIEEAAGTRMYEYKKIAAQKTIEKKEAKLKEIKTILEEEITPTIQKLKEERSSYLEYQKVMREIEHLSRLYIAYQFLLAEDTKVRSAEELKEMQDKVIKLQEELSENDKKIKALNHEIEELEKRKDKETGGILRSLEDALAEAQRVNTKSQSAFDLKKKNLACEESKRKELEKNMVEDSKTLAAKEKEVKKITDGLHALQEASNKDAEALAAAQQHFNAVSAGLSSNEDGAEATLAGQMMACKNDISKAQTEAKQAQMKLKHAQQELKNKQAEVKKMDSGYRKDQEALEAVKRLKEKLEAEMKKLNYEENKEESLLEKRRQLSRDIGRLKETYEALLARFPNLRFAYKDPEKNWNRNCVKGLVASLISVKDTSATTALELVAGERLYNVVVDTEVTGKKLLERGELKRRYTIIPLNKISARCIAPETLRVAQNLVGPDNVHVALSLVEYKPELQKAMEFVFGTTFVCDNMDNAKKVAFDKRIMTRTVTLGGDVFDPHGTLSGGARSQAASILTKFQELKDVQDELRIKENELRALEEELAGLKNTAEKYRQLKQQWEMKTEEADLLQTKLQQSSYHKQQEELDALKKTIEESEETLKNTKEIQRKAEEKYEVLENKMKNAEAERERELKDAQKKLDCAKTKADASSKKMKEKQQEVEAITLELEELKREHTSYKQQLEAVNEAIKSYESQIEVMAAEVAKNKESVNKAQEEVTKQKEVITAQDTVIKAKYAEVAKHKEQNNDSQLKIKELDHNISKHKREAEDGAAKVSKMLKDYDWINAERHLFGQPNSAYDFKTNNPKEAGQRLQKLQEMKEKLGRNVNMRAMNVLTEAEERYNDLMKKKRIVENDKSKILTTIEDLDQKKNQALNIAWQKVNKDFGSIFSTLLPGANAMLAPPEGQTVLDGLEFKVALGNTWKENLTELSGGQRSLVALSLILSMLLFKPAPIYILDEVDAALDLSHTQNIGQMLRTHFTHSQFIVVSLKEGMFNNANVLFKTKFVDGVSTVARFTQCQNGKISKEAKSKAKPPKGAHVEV
row,Compound,Kd
1,CN1CCN(c2ccc3nc(-c4c(N)c5c(F)cccc5[nH]c4=O)[nH]c3c2)CC1 [DOVITINIB],> 30 µM (inactive)
2,CCn1c(-c2nonc2N)nc2c(C#CC(C)(C)O)ncc(OC[C@H]3CCCNC3)c21 [GSK-690693],1.11 µM (active)
3,Cc1cn(-c2cc(NC(=O)c3ccc(C)c(Nc4nccc(-c5cccnc5)n4)c3)cc(C(F)(F)F)c2)cn1 [NILOTINIB],> 30 µM (inactive)
4,C1=C/COCc2cc(ccc2OCCN2CCCC2)Nc2nccc(n2)-c2cccc(c2)COC/1 [PACRITINIB],> 30 µM (inactive)
5,OCCn1cc(-c2cnc3nnn(Cc4ccc5ncccc5c4)c3n2)cn1 [PF-04217903],> 30 µM (inactive)
6,CNC(=O)c1cc(Oc2ccc(NC(=O)Nc3ccc(Cl)c(C(F)(F)F)c3)c(F)c2)ccn1 [REGORAFENIB],> 30 µM (inactive)
7,O=C(Nc1cccc(Cl)c1)Nc1ncc(CCNc2ncnc3ccsc23)s1 [SNS-314],> 30 µM (inactive)
8,Nc1nc(N)c2nc(-c3cccc(O)c3)c(-c3cccc(O)c3)nc2n1 [TG100-115],> 30 µM (inactive)
9,COc1cc2nccc(Oc3ccc(NC(=O)Nc4cc(C)on4)c(Cl)c3)c2cc1OC [TIVOZANIB],> 30 µM (inactive)
